pIC50: −log10 of the molar value.
Tests used:
HeLa = experiment: Antiproliferative activity against human HeLa cells by SRB assay; type: functional, cell-based
[1] = Half life in phosphate buffer saline; type: physicochemical; settings: phosphate buffered saline

pIC50 (HeLa) | SMILES | half-life [1]
5.47 | CC(=O)O[C@@H]1[C@H]2[C@@H]3C(=O)C(O)=C4C[C@@H]5O[C@@H]5[C@H](OC(C)=O)[C@]4(C)[C@H]3[C@H](OC(C)=O)[C@H](OC(C)=O)[C@]2(C)[C@@H]2[C@@H]1[C@]1(C)C(=C[C@H]2C)OC(=O)[C@@]1(C)O | 
 | CC(=O)O[C@@H]1[C@H]2[C@H]3[C@H]([C@H](OC(C)=O)[C@H](OC(C)=O)[C@]2(C)[C@H]2[C@H](C)[C@@H]4O[C@@]45OC(=O)[C@@](C)(O)[C@]5(C)[C@H]12)[C@]1(C)[C@H](C[C@@H]2O[C@@H]2[C@@H]1OC(C)=O)C(=O)[C@@H]3O | 9 h
5.30 | CC(=O)O[C@@H]1[C@H]2[C@H]3[C@H]([C@H](OC(C)=O)[C@H](OC(C)=O)[C@]2(C)[C@@H]2[C@@H]1[C@]1(C)C(=C[C@H]2C)OC(=O)[C@@]1(C)O)[C@]1(C)[C@H](C[C@@H]2O[C@@H]2[C@@H]1OC(C)=O)C(=O)C3(O)O | 
6.14 | CC(=O)O[C@H]1[C@@H]2[C@H]([C@H](C)C=C3OC(=O)[C@@](C)(O)[C@@]32C)[C@]2(C)[C@@H]1C1=C(O)C(=O)[C@H]3C[C@@H]4O[C@@H]4[C@H](OC(C)=O)[C@]3(C)[C@H]1[C@H](OC(C)=O)[C@@H]2OC(C)=O | 

SMILES | pIC50 (HeLa) | half-life [1]
CC(=O)O[C@@H]1[C@H]2[C@H]3[C@H]([C@H](OC(C)=O)[C@H](OC(C)=O)[C@]2(C)[C@@H]2[C@@H]1[C@]1(C)C(=C[C@@]2(C)OO)OC(=O)[C@@]1(C)O)[C@]1(C)[C@H](C[C@@H]2O[C@@H]2[C@@H]1OC(C)=O)C(=O)[C@@H]3O | < 4.30 | 

— ChEMBL document CHEMBL3351965, “Taccalonolide microtubule stabilizers” (Bioorg Med Chem, 2014)
